Data reported in US20130064907A1, “COMBINATIONS OF ANTIFUNGAL COMPOUNDS AND TEA TREE OIL” (priority 2010, published 2013).

Assays:
Format in all cases: in vivo
tomato powdery mildew = experiment: Tomato Powdery Mildew - Site 1, foliar sprays; details: 12 days from fourth application; TG 0.3%, Azoxystrobin 50 cc/dunam, alone or combined
Protocol: (§1) Various combinations of TTO (supplied as Timorex Gold®) and synthetic fungicidal compositions (supplied as commercial products to be diluted by the end user prior to use) were tested against tomato powdery mildew and pepper powdery mildew. Open field or greenhouse-grown plants of the crops studied were drip irrigated and fertilized according to known recommendations for each crop. Treatments were applied in a randomized complete block, with 5 replications per treatment. Plot size in each instance was of 5-10 m length, containing 6-20 plants, depending on the crop. Fungicidal treatment was applied using backpack sprayer equipped with a mist blower (STHIL 340) to spray a volume of 600 liter/ha, depending on the crop. From three to eight foliar sprays were applied at 7-14 day intervals, depending on the crop. Disease severity was evaluated by determining the leaf area covered with powdery mildew (disease severity) on each of 20 leaves randomly selected per each replicate. […] To analyze the results, an arc-sin transformation was performed on the raw data, and analysis of variance (ANOVA) using the SAS GLM procedure was applied to the transformed data. The Tukey-Kramer Test was applied to determine whether differences between treatments were significant. In the tables, “a”, “b” and “c”, refer to differences in statistical analysis that are familiar to users of the Tukey-Kramer test; “SF” is the “synergy” factor, calculated using the Abbott formula (SF=observed efficacy (Eobs)/expected efficacy (Eexp), where Eexp=α+β−[…], where α and β denote the levels of control afforded by materials α and β, respectively, alone; see e.g. Levy et al., EPPO Bull. 16, 651-657 (1986)).

pepper powdery mildew [1] = experiment: Pepper Powdery Mildew - Site 1, foliar sprays; details: 14 days from third application; TG 0.3%, Triadimenol 75 cc/dunam, Azoxystronin 50 cc/dunam, Trifloxystrobin 20 cc/dunam, alone or combined with TG
Protocol: as §1

pepper powdery mildew [2] = experiment: Pepper Powdery Mildew - Site 2, foliar sprays; details: 15 days from ninth application; TG 0.3%, Trifloxystrobin 20 gr/dunam, Myclobutanil 60 gr/dunam, alone or combined with TG
Protocol: Various combinations of TTO (supplied as Timorex Gold®) and synthetic fungicidal compositions (supplied as commercial products to be diluted by the end user prior to use) were tested against tomato powdery mildew and pepper powdery mildew. Open field or greenhouse-grown plants of the crops studied were drip irrigated and fertilized according to known recommendations for each crop. Treatments were applied in a randomized complete block, with 5 replications per treatment. Plot size in each instance was of 5-10 m length, containing 6-20 plants, depending on the crop. Fungicidal treatment was applied using backpack sprayer equipped with a mist blower (STHIL 340) to spray a volume of 600 liter/ha, depending on the crop. […] Disease severity was evaluated by determining the leaf area covered with powdery mildew (disease severity) on each of 20 leaves randomly selected per each replicate. […] To analyze the results, an arc-sin transformation was performed on the raw data, and analysis of variance (ANOVA) using the SAS GLM procedure was applied to the transformed data. The Tukey-Kramer Test was applied to determine whether differences between treatments were significant. In the tables, “a”, “b” and “c”, refer to differences in statistical analysis that are familiar to users of the Tukey-Kramer test; “SF” is the “synergy” factor, calculated using the Abbott formula (SF=observed efficacy (Eobs)/expected efficacy (Eexp), where Eexp=α+β−[…], where α and β denote the levels of control afforded by materials α and β, respectively, alone; see e.g. Levy et al., EPPO Bull. 16, 651-657 (1986)).

Row | SMILES | Incidence: % leaves infected (tomato powdery mildew) [%] | Incidence: Efficacy (%) (tomato powdery mildew) | Severity: % infected leaf area (tomato powdery mildew) [%] | Severity: Efficacy (%) (tomato powdery mildew) | Incidence: % leaves infected (pepper powdery mildew [1]) [%] | Incidence: Efficacy (%) (pepper powdery mildew [1]) | Severity: % infected leaf area (pepper powdery mildew [1]) [%] | Severity: Efficacy (%) (pepper powdery mildew [1]) | Incidence: % leaves infected (pepper powdery mildew [2]) [%] | Incidence: Efficacy (%) (pepper powdery mildew [2]) | Severity: % infected leaf area (pepper powdery mildew [2]) [%] | Severity: Efficacy (%) (pepper powdery mildew [2])
1 | CO/C=C(/C(=O)OC)c1ccccc1Oc1cc(Oc2ccccc2C#N)ncn1 [Azoxystrobin] | 45 | 55.0 | 5 | 91.7 | 22.5 | 73.1 | 2.9 | 88.1 | – | – | – | –
2 | CC(C)(C)C(O)C(Oc1ccc(Cl)cc1)n1cncn1 (stereo not drawn) [Triadimenol] | – | – | – | – | 48.7 | 41.8 | 8.4 | 65.6 | – | – | – | –
3 | CON=C(C(=O)OC)c1ccccc1CON=C(C)c1cccc(C(F)(F)F)c1 [Trifloxystrobin] | – | – | – | – | 25 | 70.1 | 1.9 | 92.2 | 2 | 96.9 | 0.1 | 99.6
4 | CCCCC(C#N)(Cn1cncn1)c1ccc(Cl)cc1 (stereo not drawn) [Myclobutanil] | – | – | – | – | – | – | – | – | 2 | 96.9 | 0 | 100.0
